Assay results published in patent US6946452B2, “Use of N-acetyl-D-glucosamine in the manufacture of pharmaceutical useful for treating motion sickness” (Third Military Medical University Chinese People's …, priority 2001, dated 2005).

Legend:
Proteus Mirabilis = assay: Promoting wave test (bacterial bio-wave growth model); type: cell-based; conditions: final concentration of 0.5% on LB plate, 37° C., compared with control
Source text: I. Promoting Wave Test of N-acetyl-D-glucosamine
1. Experimental Materials and Method:
1.1 Samples: Pure Compound of Formula (I)
1.2 Experimental Materials: • Strain: Proteus Mirabilis (which should comply with the following biological reaction characteristics: dynamics (+), urease (+), lactose (−), glucose (+), H2S (−), phenylalanine deaminase (+). • Culture medium: modified LB culture medium (the components of the composition are: trytones of 1%, yeast extract of 0.5%, sodium chloride 1%, glucose of 0.1%, TTC of 0.002% and pH=7.2˜7.4).
2. Experimental Results and Evaluation: • The experiment adopts a bio-wave model which is used to research the promoting wave function of N-acetyl-D-glucosamine. […] II. Toxicological Test of the Compound of Formula (I), including: […]

[1] = in vivo
[2] = in vivo; remark: listed apart in the source
Source text: 1. acute toxicity test: including tests of administrating medicine by oral, Intravenous injection and maximum limit amount for administration;
III. Observation of Curative Efficiency.

motion sickness = assay: Observation of curative efficiency in patients suffering from motion sickness; type: in vivo; conditions: for Not effective (number of persons) / Effective (number of persons): 20 persons; for Effective (number of persons): 100 km by car and by small steamboat
Method: 80 patients suffering from motion sickness were selected and randomly divided into four groups: a group to whom N-acetyl-D-glucosamine was administered in a long term (800 mg of NAG/person/day), a group to whom N-acetyl-D-glucosamine was administered in a short term (6000 mg of NAG/person/day), placebo group (6000 mg of glucose/person/day), a group to whom no medicament was administered. A double blind method was adopted, observing the curative efficiency for traveling 100 kilometers by car (its velocity was 20 kilometers/hour) and traveling 100 kilometers by a small steamboat. Compared with the situation before traveling by car, the following symptoms being relieved or removed will be judged to be effective: dizziness, nausea and vomiting.

[3] = long term group, 800 mg of NAG/person/day
[4] = short term group, 6000 mg of NAG/person/day

CC(=O)N[C@H]1C(O)O[C@H](CO)[C@@H](O)[C@@H]1O (stereo partly drawn) [N-acetyl-D-glucosamine]
promoting wave function (concentric ring pattern on LB plate) (Proteus Mirabilis): many fine waves on each ring emerged | maximum dosage with no toxicosis reaction [1]: 1 g/kg | dosage at which acute toxicosis reaction had not appeared [2]: more than 2 g/kg | Not effective (number of persons) (motion sickness; [3]): 2 | Effective (number of persons) (motion sickness; [3]): 18 | effectivity of preventing and treating motion sickness (motion sickness; p<0.05 vs placebo group and no-administration group): more than 90% | Not effective (number of persons) (motion sickness; [4]): 1 | Effective (number of persons) (motion sickness; [4]): 19
